Among the data in ChEMBL document CHEMBL4257544, “Synthesis and biological evaluation of novel asymmetric naphthalene diimide derivatives as anticancer agents depending on ROS generation” (Medchemcomm, 2018) are solubility and IC50 values, retold here.

A short description of data set [1]: Solubility of the compound. It counts as physicochemical.
A further data set deals with SMMC-7721. Put plainly: Cytotoxicity against human SMMC7721 cells after 48 hrs by MTT assay. The data set is classed as functional, cell-based. The note with it: SMMC-7721, 48 h.
The subject of another data set is MCF7. Put plainly: Cytotoxicity against human MCF7 cells after 48 hrs by MTT assay. The data set is classed as functional, cell-based. The note with it: MCF7, 48 h. A general note: Tetrazolium dyes change colour on reduction, which living cells bring about.
In a further data set the test system is MDA-MB-231. Put plainly: Cytotoxicity against human MDA-MB-231 cells after 48 hrs by MTT assay. It counts as functional, cell-based. The following applies: MDA-MB-231, 48 h.
The next data set has as its system HCT-116. Description: Cytotoxicity against human HCT116 cells after 48 hrs by MTT assay. The data set is classed as functional, cell-based. The following applies: HCT-116, 48 h.
Another data set concerns HepG2. Description: Cytotoxicity against human HepG2 cells after 48 hrs by MTT assay. The data set is classed as functional, cell-based. The following applies: HepG2, 48 h.

In the case of `CCCCN1C(=O)c2ccc3c4c(ccc(c24)C1=O)C(=O)N(CCC)C3=O`, the solubility result in data set [1] is recorded as “Insoluble”. The IC50 in the data set on SMMC-7721, with MCF7, in the data set on MDA-MB-231, in the data set with HCT-116 and in the data set on HepG2 was more than 50 µM throughout.
As for `CCCCN1C(=O)c2ccc3c4c(ccc(c24)C1=O)C(=O)N(CCCN1CCOCC1)C3=O`, the IC50 (commonly the point on the concentration scale where inhibition reaches its midpoint) was 25.4 µM in the data set with SMMC-7721; 21.4 µM in the data set with MCF7; 18.2 µM with MDA-MB-231; 32.7 µM with HCT-116; 30.6 µM with HepG2.
On to `CN(C)CCCN1C(=O)c2ccc3c4c(ccc(c24)C1=O)C(=O)N(CCCO)C3=O`, for which the 50% inhibitory concentration (IC50) worked out at 4.44 µM in the data set on SMMC-7721; 3.36 µM with MCF7; 6.21 µM in the data set on MDA-MB-231; 5.29 µM in the data set on HCT-116; 5.96 µM in the data set on HepG2.
With `CCCCN1C(=O)c2ccc3c4c(ccc(c24)C1=O)C(=O)N(C1CCCCC1)C3=O`, the solubility entry in data set [1] was “Insoluble”. The concentration for half-maximal inhibition (IC50) with SMMC-7721 is more than 50 µM; in the data set on MCF7 it was more than 50 µM; in the data set on MDA-MB-231, more than 50 µM; in the data set with HCT-116, 45.9 µM; in the data set on HepG2 it was more than 50 µM.
With `CCCCN1C(=O)c2ccc3c4c(ccc(c24)C1=O)C(=O)N(c1cccnc1)C3=O`, the IC50 in the data set with SMMC-7721 is 37.9 µM; in the data set on MCF7, more than 50 µM; in the data set on MDA-MB-231, more than 50 µM; in the data set with HCT-116, 36.3 µM; in the data set with HepG2, 35.9 µM.
Consider `CC(C)CN1C(=O)c2ccc3c4c(ccc(c24)C1=O)C(=O)N(CCCO)C3=O`, for which the IC50 in the data set on SMMC-7721 turned out to be 3.8 µM; with MCF7, 4.78 µM; with MDA-MB-231, 5.39 µM; in the data set on HCT-116, 8.29 µM; in the data set with HepG2, 4.14 µM.
As for `CCCCN1C(=O)c2ccc3c4c(ccc(c24)C1=O)C(=O)N(c1ncccn1)C3=O`, the IC50 in the data set on SMMC-7721 was determined as 35.1 µM; in the data set with MCF7, 12.6 µM; in the data set on MDA-MB-231, 15.1 µM; in the data set on HCT-116, 9.22 µM; in the data set with HepG2 it was 17 µM.
For the molecule `CCCCN1C(=O)c2ccc3c4c(ccc(c24)C1=O)C(=O)N(C1CC1)C3=O`, in data set [1], the solubility result was “Insoluble”. Moreover, the IC50 in the data set on SMMC-7721 is more than 50 µM; in the data set with MCF7 it was more than 50 µM; in the data set on MDA-MB-231, more than 50 µM; with HCT-116, 16.3 µM; with HepG2, more than 50 µM.
As for `O=C1c2ccc3c4c(ccc(c24)C(=O)N1CCCO)C(=O)N(CCCN1CCOCC1)C3=O`, the IC50 in the data set on SMMC-7721 is 2.7 µM; in the data set on MCF7, 6.98 µM; in the data set on MDA-MB-231, 7.64 µM; in the data set on HCT-116 it was 4.35 µM; in the data set with HepG2 it was 3.08 µM.
As to `CCCCN1C(=O)c2ccc3c4c(ccc(c24)C1=O)C(=O)N(CC1CC1)C3=O`, the solubility entry in data set [1] is given as “Insoluble”. For the same molecule, the IC50 in the data set with SMMC-7721 was more than 50 µM; in the data set with MCF7, more than 50 µM; in the data set with MDA-MB-231 it was more than 50 µM; with HCT-116 it was 32.3 µM; in the data set on HepG2, more than 50 µM.
Turning to `CCCCN1C(=O)c2ccc3c4c(ccc(c24)C1=O)C(=O)N(CC(C)C)C3=O`, the solubility entry in data set [1] is “Insoluble”. Moreover, the IC50 with SMMC-7721 is 36.4 µM; in the data set with MCF7, 39.6 µM; in the data set on MDA-MB-231, more than 50 µM; in the data set with HCT-116, 28.2 µM; with HepG2 it was 45.2 µM.
In the case of `CN(C)CCN1C(=O)c2cccc3cc(N)cc(c23)C1=O` [AMONAFIDE], the IC50 was 9.37 µM with SMMC-7721; 12.9 µM with MCF7; 6.62 µM in the data set with MDA-MB-231; 6.46 µM in the data set on HCT-116; 9.45 µM in the data set with HepG2.
